Results published in ChEMBL document CHEMBL5729376, “SSAO inhibitors and use thereof” (2022).

Columns and labels:
[1] = target: T1, Amine oxidase [flavin-containing] A (Homo sapiens, UniProt P21397); test: (§1) SSAO Activity Assay: Amine oxidase activity of recombinant hSSAO, hMAO-A, and hMAO-B isoforms are measured using the MAO-Glo assay kit (Promega, V1402). Ten nL test compounds (with DMSO as vehicle, 0.1% v/v for hSSAO, hMAO-A and hMAO-B) were added into assay plates by Echo, and pre-incubated with 5 μL of enzyme for 30 mins at room temperature before the addition of 5 μL of luminogenic substrate. The substrate concentration is 40 μM for human recombinant SSAO, 40 μM for human recombinant MAO-A, and 4 μM for human recombinant MAO-B. The hSSAO and hMAO-A assays were conducted in the MAO-A reaction buffer in the kit, and the MAO-B assay was conducted in the MAO-B reaction buffer. Oxidation of the substrate was conducted for 1 hr, before the addition of detecting reagent according the manufacture's protocol. The IC50 value of the tested compounds was calculated by fitting the dose response curve using a 4-parameter non-linear regression routine.
T1 sequence (P21397 whole entry): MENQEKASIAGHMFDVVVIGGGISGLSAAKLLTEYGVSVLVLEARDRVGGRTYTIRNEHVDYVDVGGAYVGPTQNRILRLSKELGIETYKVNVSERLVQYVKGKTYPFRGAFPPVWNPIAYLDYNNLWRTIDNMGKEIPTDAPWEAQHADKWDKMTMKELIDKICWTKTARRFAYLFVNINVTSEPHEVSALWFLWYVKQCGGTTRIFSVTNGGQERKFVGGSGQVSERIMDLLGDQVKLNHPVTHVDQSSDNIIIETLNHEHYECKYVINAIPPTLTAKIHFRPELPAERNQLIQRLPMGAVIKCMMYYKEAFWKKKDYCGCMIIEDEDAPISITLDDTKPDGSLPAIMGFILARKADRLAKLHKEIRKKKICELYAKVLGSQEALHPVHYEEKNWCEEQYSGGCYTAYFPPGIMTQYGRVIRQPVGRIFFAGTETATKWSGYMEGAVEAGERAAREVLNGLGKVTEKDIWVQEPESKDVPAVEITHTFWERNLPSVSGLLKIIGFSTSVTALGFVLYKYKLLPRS

[2] = target: T2, Amine oxidase [flavin-containing] B (Homo sapiens, UniProt P27338); test: as §1
T2 sequence (P27338 whole entry): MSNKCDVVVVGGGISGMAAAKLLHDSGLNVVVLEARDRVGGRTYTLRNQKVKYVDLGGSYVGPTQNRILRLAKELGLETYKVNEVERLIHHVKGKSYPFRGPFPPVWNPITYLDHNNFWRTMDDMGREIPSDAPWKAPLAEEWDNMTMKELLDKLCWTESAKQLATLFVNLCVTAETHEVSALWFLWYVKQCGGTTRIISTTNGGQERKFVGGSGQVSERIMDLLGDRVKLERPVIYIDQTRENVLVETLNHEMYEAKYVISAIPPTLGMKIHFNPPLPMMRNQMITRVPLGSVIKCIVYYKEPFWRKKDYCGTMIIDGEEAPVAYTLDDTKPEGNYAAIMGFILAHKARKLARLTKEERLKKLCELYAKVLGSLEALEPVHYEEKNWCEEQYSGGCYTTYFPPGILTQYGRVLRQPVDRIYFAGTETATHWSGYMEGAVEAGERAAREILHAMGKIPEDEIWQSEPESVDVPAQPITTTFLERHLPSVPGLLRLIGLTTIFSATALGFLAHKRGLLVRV

| IC50 [1] [µM] | IC50 [2] [µM] | Structure (SMILES) |
| --- | --- | --- |
| > 30 | > 30 | NC/C(=C\F)COc1ccc(S(=O)(=O)CC23CCC(N4CCCS4(=O)=O)(CC2)CC3)cc1 |
| > 30 | < 10 | N#CC12CCC(CS(=O)(=O)c3ccc(OC/C(=C/F)CN)cc3)(CC1)CC2 |
| > 30 | < 10 | NC/C(=C\F)COc1ccc(S(=O)(=O)CC2(O)CCOCC2)cc1 |
| > 30 | > 30 | CN(C(=O)C1CC1)C12CCC(CS(=O)(=O)c3ccc(OC/C(=C/F)CN)cc3)(CC1)CC2 |
| > 30 | > 30 | CC(C)C(=O)N1CCC(C)(CS(=O)(=O)c2ccc(OC/C(=C/F)CN)cc2)CC1 |
| > 30 | > 30 | NC/C(=C\F)COc1ccc(S(=O)(=O)CC23CCC(C4(NC(=O)C5CC5)CC4)(CC2)CC3)cc1 |
| > 30 | < 10 | NC/C(=C\F)COc1ccc(S(=O)(=O)CC2CCOCC2)cc1 |
| > 30 | < 10 | NC/C(=C\F)COc1ccc(S(=O)(=O)C[C@H]2CC[C@H](NC(=O)C3CC3)CC2)cc1 |
| > 30 | < 10 | NC/C(=C\F)COc1ccc(S(=O)(=O)CC23CC(C(=O)NC4CCC4)(C2)C3)cc1 |
| 10 to 30 | > 30 | NC/C(=C\F)COc1ccc(S(=O)(=O)CC2CCCN(C(=O)C3CCCC3)C2)cc1 (stereo unspecified) |
| > 30 | > 30 | NC/C(=C\F)COc1ccc(S(=O)(=O)COC2CCN(C(=O)C3CCCC3)CC2)cc1 |
| < 10 | < 10 | NC/C(=C\F)COc1ccc(S(=O)(=O)C[C@H]2CC[C@@H](O)CC2)cc1 |
| > 30 | < 10 | NC/C(=C/F)COc1ccc(S(=O)(=O)CC23CCC(NC(=O)C4CC4)(CC2)CC3)cc1 |
| > 30 | < 10 | CC1(CS(=O)(=O)c2ccc(OC/C(=C/F)CN)cc2)CCOCC1 |
| > 30 | < 10 | NC/C(=C\F)COc1ccc(S(=O)(=O)COC2CCOCC2)cc1 |
| > 30 | > 30 | NC/C(=C\F)COc1ccc(S(=O)(=O)CC23CCC(NC(=O)CC(F)(F)F)(CC2)CC3)cc1 |
| > 30 | > 30 | NC/C(=C\F)COc1ccc(S(=O)(=O)CC2(CN3CCCCC3=O)CC2)cc1 |
| > 30 | < 10 | NC/C(=C\F)COc1ccc(S(=O)(=O)C[C@H]2CCCO2)cc1 |
| > 30 | > 30 | NC/C(=C\F)COc1ccc(S(=O)(=O)CC23CCC(C(=O)O)(CC2)CC3)cc1 |
| > 30 | < 10 | NC/C(=C\F)COc1ccc(S(=O)(=O)CC23CCC(C(=O)NC4CCC4)(CC2)C3)cc1 |
| > 30 | < 10 | C[C@@H](CN1CCC2(CCCC2)C1=O)CS(=O)(=O)c1ccc(OC/C(=C/F)CN)cc1 |
| > 30 | < 10 | C[C@H](CN1CCC2(CCCC2)C1=O)CS(=O)(=O)c1ccc(OC/C(=C/F)CN)cc1 |

Second part, the compound before the results:

| Structure (SMILES) | IC50 [1] [µM] | IC50 [2] [µM] |
| --- | --- | --- |
| C[C@@H](CS(=O)(=O)c1ccc(OC/C(=C/F)CN)cc1)N1CCCCC1=O | > 30 | < 10 |
| CCN(CC(C)CS(=O)(=O)c1ccc(OC/C(=C/F)CN)cc1)C(=O)C(C)C (stereo unspecified) | > 30 | > 30 |
| COCC(COC)CS(=O)(=O)c1ccc(OC/C(=C/F)CN)cc1 | > 30 | < 10 |
| CC(C)n1ccc(CS(=O)(=O)c2ccc(OC/C(=C/F)CN)cc2)cc1=O | > 30 | < 10 |
| NC/C(=C\F)COc1ccc(S(=O)(=O)COCC2CCOCC2)cc1 | > 30 | 10 to 30 |
| CC1(CS(=O)(=O)c2ccc(OC/C(=C/F)CN)cc2F)CCOCC1 | < 10 | < 10 |
| NC/C(=C\F)COc1ccc(S(=O)(=O)CC2CCOCC2)cc1F | < 10 | < 10 |
| C[C@H](CN1CCOCC1)CS(=O)(=O)c1ccc(OC/C(=C/F)CN)cc1 | > 30 | > 30 |
| COCC(COC)OCS(=O)(=O)c1ccc(OC/C(=C/F)CN)cc1 | > 30 | < 10 |
| NC/C(=C\F)COc1ccc(S(=O)(=O)CC2CCN(C(=O)c3ccc(F)cc3)CC2)cc1 | < 10 | < 10 |
| NC/C(=C\F)COc1ccc(S(=O)(=O)Cc2ccc(C(=O)N3CCCC3)cc2)cc1 | > 30 | > 30 |
| CC1(COCS(=O)(=O)c2ccc(OC/C(=C/F)CN)cc2)CCOCC1 | > 30 | < 10 |
| CC(C)C(=O)N1CCC(C)(COCS(=O)(=O)c2ccc(OC/C(=C/F)CN)cc2)CC1 | > 30 | < 10 |
| CC(C)C(=O)N1CC(CS(=O)(=O)c2ccc(OC/C(=C/F)CN)cc2)C1 | > 30 | < 10 |
| C[C@H](CN1CCCCC1=O)CS(=O)(=O)c1ccc(OC/C(=C/F)CN)cc1 | > 30 | > 30 |
| NC/C(=C\F)COc1ccc(S(=O)(=O)Cn2ccccc2=O)cc1 | > 30 | < 10 |
| CC1(COCS(=O)(=O)c2ccc(OC/C(=C/F)CN)cc2)CCN(C(=O)C(C)(C)C)CC1 | > 30 | < 10 |
| NC/C(=C\F)COc1ccc(S(=O)(=O)CC2CCN(C(=O)C3CC3)CC2)c(Cl)c1 | > 30 | > 30 |
| CC(C)N1CCN(CS(=O)(=O)c2ccc(OC/C(=C/F)CN)cc2)C(=O)C1 | > 30 | > 30 |
| NC/C(=C\F)COc1ccc(S(=O)(=O)C[C@@H]2CCOC2)cc1 | 10 to 30 | < 10 |
| NC/C(=C\F)COc1ccc(S(=O)(=O)Cc2cnc(N3CCCC3)nc2)cc1 | > 30 | < 10 |
| NC/C(=C\F)COc1ccc(S(=O)(=O)CN2CCCC2=O)cc1 | > 30 | > 30 |
| COCCOCS(=O)(=O)c1ccc(OC/C(=C/F)CN)cc1 | > 30 | > 30 |
| N#CC1(COCS(=O)(=O)c2ccc(OC/C(=C/F)CN)cc2)CCOCC1 | > 30 | > 30 |
| C[C@@H](CN1CCCC1=O)CS(=O)(=O)c1ccc(OC/C(=C/F)CN)cc1 | > 30 | > 30 |
| CC(C)C(=O)Nc1ccc(CS(=O)(=O)c2ccc(OC/C(=C/F)CN)cc2)cc1 | > 30 | < 10 |
